Test results as given in ChEMBL document CHEMBL1201862, “PubChem BioAssay data set” (2004).
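Step 1: Grow cells in 96-well plates. Step 2: Expose to compound for 48 hours at 5 concentrations. Step 3: Interpolate endpoints linearly; if unreached, use highest concentration. GI50 marks 50% less growth.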 Active and inactive are the calls of the source. Rule as the data show it: active = GI50 up to about 1.1 µM and inactive = higher.

Columns and labels:
Test in all cases: inhibition of tumour cell growth, NCI panel, 48 h
M14 = system: M14
HCC 2998 = system: HCC 2998
Hs-578T = system: Hs-578T
HCT-15 = system: HCT-15
T47D = system: T47D
MDA-N = system: MDA-N
K562 = system: K562
CAKI-1 = system: CAKI-1
KM12 = system: KM12
HL-60 = system: HL-60
A549 = system: A549
IGROV-1 = system: IGROV-1
OVCAR-8 = system: OVCAR-8
HOP-92 = system: HOP-92
SK-OV-3 = system: SK-OV-3
NCI-H23 = system: NCI-H23
HCT-116 = system: HCT-116
NCI-H460 = system: NCI-H460

## CCCCCCCC/C=C\CCCCCCC(F)C(=O)O (centres undefined)
M14
  GI50: > 12.5 µM (inactive)
HCC 2998
  GI50: > 12.5 µM (inactive)
Hs-578T
  GI50: > 12.5 µM (inactive)
HCT-15
  GI50: > 12.5 µM
T47D
  GI50: > 12.5 µM (inactive)
MDA-N
  GI50: > 12.5 µM (inactive)
K562
  GI50: > 12.5 µM (inactive)
CAKI-1
  GI50: > 12.5 µM (inactive)
KM12
  GI50: > 12.5 µM (inactive)
HL-60
  GI50: > 12.5 µM (inactive)
A549
  GI50: > 12.5 µM (inactive)
IGROV-1
  GI50: > 12.5 µM (inactive)
OVCAR-8
  GI50: > 12.5 µM (inactive)
HOP-92
  GI50: > 12.5 µM (inactive)
SK-OV-3
  GI50: > 12.5 µM (inactive)
NCI-H23
  GI50: > 12.5 µM (inactive)
HCT-116
  GI50: > 12.5 µM (inactive)

## CCc1cc2c(oc3cc(C)ccc32)c(=O)n1C
M14
  GI50: > 10 µM (inactive)
HCC 2998
  GI50: > 10 µM (inactive)
Hs-578T
  GI50: > 10 µM (inactive)
NCI-H460
  GI50: > 10 µM (inactive)
HCT-15
  GI50: > 10 µM
T47D
  GI50: > 10 µM (inactive)
MDA-N
  GI50: > 10 µM (inactive)
K562
  GI50: > 10 µM (inactive)
KM12
  GI50: > 10 µM (inactive)
HL-60
  GI50: > 10 µM (inactive)
A549
  GI50: > 10 µM (inactive)
IGROV-1
  GI50: > 10 µM (inactive)
OVCAR-8
  GI50: > 10 µM (inactive)
HOP-92
  GI50: > 10 µM (inactive)
SK-OV-3
  GI50: > 10 µM (inactive)
NCI-H23
  GI50: > 10 µM (inactive)
HCT-116
  GI50: > 10 µM (inactive)

## CC[C@@]1(C)CCC2c3ccc(O)cc3CC[C@H]2C1C (some centres undefined)
M14
  GI50: 15.7 µM (inactive)
HCC 2998
  GI50: 13.7 µM (inactive)
Hs-578T
  GI50: 18.8 µM (inactive)
NCI-H460
  GI50: 22.7 µM (inactive)
HCT-15
  GI50: 16 µM
T47D
  GI50: 18.1 µM (inactive)
MDA-N
  GI50: 13.1 µM (inactive)
K562
  GI50: 8.75 µM (inactive)
CAKI-1
  GI50: 21.2 µM (inactive)
KM12
  GI50: 15.8 µM (inactive)
HL-60
  GI50: 10.8 µM (inactive)
A549
  GI50: 17.9 µM (inactive)
IGROV-1
  GI50: 20.8 µM (inactive)
OVCAR-8
  GI50: 17.7 µM (inactive)
HOP-92
  GI50: 6.85 µM (inactive)
NCI-H23
  GI50: 18 µM (inactive)
HCT-116
  GI50: 17.7 µM (inactive)

## OC(c1cc2ccc(C(F)(F)F)cc2c2cc(C(F)(F)F)ccc12)C1CCCCN1 (centres undefined)
M14
  GI50: 1.88 µM (inactive)
HCC 2998
  GI50: 1.3 µM (inactive)
Hs-578T
  GI50: 1.9 µM (inactive)
NCI-H460
  GI50: 1.95 µM (inactive)
HCT-15
  GI50: 1.79 µM
T47D
  GI50: 1.87 µM (inactive)
MDA-N
  GI50: 1.75 µM (inactive)
K562
  GI50: 1.55 µM (inactive)
CAKI-1
  GI50: 1.8 µM (inactive)
KM12
  GI50: 2.07 µM (inactive)
HL-60
  GI50: 31.4 µM (inactive)
A549
  GI50: 1.8 µM (inactive)
IGROV-1
  GI50: 1.74 µM (inactive)
HOP-92
  GI50: 1.74 µM (inactive)
SK-OV-3
  GI50: 2.36 µM (inactive)
NCI-H23
  GI50: 1.66 µM (inactive)
HCT-116
  GI50: 1.46 µM (inactive)

## c1ccc(Cc2cccc3cc(-c4ccc(-c5ccccc5)cc4)[nH]c23)cc1
M14
  GI50: 52.8 µM (inactive)
HCC 2998
  GI50: 95.1 µM (inactive)
Hs-578T
  GI50: 14.7 µM (inactive)
NCI-H460
  GI50: > 100 µM (inactive)
HCT-15
  GI50: > 100 µM
T47D
  GI50: > 100 µM (inactive)
MDA-N
  GI50: > 100 µM (inactive)
CAKI-1
  GI50: 75.7 µM (inactive)
KM12
  GI50: 86.9 µM (inactive)
HL-60
  GI50: > 100 µM (inactive)
A549
  GI50: 76.7 µM (inactive)
IGROV-1
  GI50: > 100 µM (inactive)
OVCAR-8
  GI50: 45.8 µM (inactive)
HOP-92
  GI50: > 100 µM (inactive)
SK-OV-3
  GI50: > 100 µM (inactive)
NCI-H23
  GI50: > 100 µM (inactive)
HCT-116
  GI50: > 100 µM (inactive)

## O=C(CN1C(=O)c2ccccc2C1=O)C(O)CN1C(=O)c2ccccc2C1=O (centres undefined)
M14
  GI50: > 100 µM (inactive)
HCC 2998
  GI50: > 100 µM (inactive)
Hs-578T
  GI50: 34.7 µM (inactive)
NCI-H460
  GI50: > 100 µM (inactive)
HCT-15
  GI50: 92.5 µM
T47D
  GI50: 93.5 µM (inactive)
MDA-N
  GI50: > 100 µM (inactive)
CAKI-1
  GI50: > 100 µM (inactive)
KM12
  GI50: 84.1 µM (inactive)
HL-60
  GI50: 44.7 µM (inactive)
A549
  GI50: > 100 µM (inactive)
IGROV-1
  GI50: 43.7 µM (inactive)
OVCAR-8
  GI50: 46.5 µM (inactive)
HOP-92
  GI50: 32.4 µM (inactive)
SK-OV-3
  GI50: 27.9 µM (inactive)
NCI-H23
  GI50: 26.9 µM (inactive)
HCT-116
  GI50: > 100 µM (inactive)

## Clc1cc(Cl)c2cc3cccc[n+]3cc2c1Cl
M14
  GI50: 17.5 µM (inactive)
HCC 2998
  GI50: 17.1 µM (inactive)
Hs-578T
  GI50: 18.1 µM (inactive)
NCI-H460
  GI50: 16.3 µM (inactive)
HCT-15
  GI50: 18.3 µM
T47D
  GI50: 7.64 µM (inactive)
MDA-N
  GI50: 16.5 µM (inactive)
K562
  GI50: 19 µM (inactive)
CAKI-1
  GI50: 6.17 µM (inactive)
KM12
  GI50: > 10 µM (inactive)
HL-60
  GI50: 12.7 µM (inactive)
A549
  GI50: 17.2 µM (inactive)
OVCAR-8
  GI50: 15.1 µM (inactive)
HOP-92
  GI50: 5.87 µM (inactive)
SK-OV-3
  GI50: 16.6 µM (inactive)
NCI-H23
  GI50: 16.1 µM (inactive)
HCT-116
  GI50: 6.44 µM (inactive)
